The results in this text go back to ChEMBL document CHEMBL5113378, “Role of basic aminoalkyl chains in the lead optimization of Indoloquinoline alkaloids” (Eur J Med Chem, 2022).

Data set [1] concerns Plasmodium falciparum. In words: Antimalarial activity against Plasmodium falciparum NF54 assessed as parasite growth inhibition. The data set is classed as functional, organism-based.
The nature of data set [2]: Cytotoxicity against rat L6 cells assessed as cell growth inhibition. The data set is classed as toxicity, cell-based.
Data set [3] deals with Hemozoin. In words: Inhibition of beta-hematin formation.
The test system of data set [4] is Plasmodium falciparum. In words: Antimalarial activity against Plasmodium falciparum K1 […] assessed as parasite growth inhibition. The data set is classed as functional, organism-based.
The nature of data set [5]: Selectivity index, ratio of CC50 for rat L6 cells to IC50 for Plasmodium falciparum K1 […]. The data set is classed as toxicity, cell-based. The note with it: read-out: Ratio CC50/IC50.
Data set [6] concerns MOLT-3. The experiment in a line: Antiproliferative activity against human MOLT-3 cells assessed as cell growth inhibition. The format is functional, cell-based.
Data set [7] relates to SK-HEP1. The experiment in a line: Antiproliferative activity against human SK-HEP1 cells assessed as cell growth inhibition. The format is functional, cell-based.
Data set [8] concerns the target T1, Telomerase reverse transcriptase (Homo sapiens, UniProt O14746). The experiment in a line: Inhibition of telomerase derived from human K562 cell extract incubated for 30 mins by TRAP assay. The data set is classed as cell-free.
Data set [9] deals with Hemozoin. In words: Inhibition of detergent-mediated beta-hematin formation incubated for 5 to 6 hrs by absorbance based assay.
A short description of data set [10]: Selectivity index, ratio of IC50 for rat L6 cells to IC50 for erythrocytic Plasmodium falciparum K1. The format is toxicity. Particulars: read-out: Ratio IC50.
The subject of data set [11] is HCT-116. The experiment in a line: Antiproliferative activity against human HCT-116 cells assessed as cell growth inhibition. The format is functional, cell-based.
The test system of data set [12] is Trypanosoma brucei. The experiment in a line: Antitrypanosomal activity against Trypanosoma brucei assessed as parasite growth inhibition. The data set is classed as functional, organism-based.
In data set [13] the test system is MCF7. The experiment in a line: Antiproliferative activity against human MCF7 cells assessed as cell growth inhibition. The data set is classed as functional, cell-based.
Data set [14] concerns the target DNA topoisomerase 2-beta (Homo sapiens) (UniProt Q02880). In words: Inhibition of human topoisomerase-2-beta.
Data set [15] concerns A549. In words: Antiproliferative activity against human A549 cells assessed as cell growth inhibition. The data set is classed as functional, cell-based.
The subject of data set [16] is Plasmodium berghei. The experiment in a line: Antimalarial activity against Plasmodium berghei NK65 infected in Webster Swiss mouse assessed as parasite growth inhibition at 50 mg/kg/day, po for 5 days by geimsa dye based microscopy relative to control. The data set is classed as functional. Also on record: scale not given: the % may be the effect or the level left. Particulars: time 5 day.

The subject of data set [17] is Plasmodium falciparum. The experiment in a line: Antimalarial activity against chloroquine/pyrimethamine resistant Plasmodium falciparum K1 assessed as parasite growth inhibition by measuring [3H]-hypoxanthine incubated for 24 hrs. The data set is classed as functional, organism-based.
Data set [18] can be described thus: Selectivity index, ratio of IC50 for rat L6 cells to IC50 for Plasmodium falciparum NF54. Particulars: read-out: Ratio IC50. The data set is classed as toxicity.
Data set [19] relates to HCT-116. The experiment in a line: Antiproliferative activity against human HCT-116 cells assessed as cell growth inhibition incubated for 96 hrs by MTS assay. The note with it: HCT-116, 96 h. The format is functional, cell-based. (Tetrazolium dyes change colour on reduction, which living cells bring about.)
Data set [20] has as its system Plasmodium falciparum. In words: Antimalarial activity against Plasmodium falciparum K1 assessed as parasite growth inhibition. The format is functional, organism-based.
Data set [21] concerns the target T1, Telomerase reverse transcriptase. The experiment in a line: Inhibition of telomerase derived from human A2780 cell extract by TRAP assay. The data set is classed as cell-free.
Data set [22] in a line: Selectivity index, ratio of IC50 for rat L6 cells to IC50 for Plasmodium falciparum K1. Particulars: read-out: Ratio IC50. The data set is classed as toxicity.
Data set [23] concerns HL-60. In words: Antiproliferative activity against human HL-60 cells assessed as cell growth inhibition. The data set is classed as functional.
For data set [24], the system named is K562. The experiment in a line: Antiproliferative activity against human K562 cells assessed as cell growth inhibition. The format is functional.
The test system of data set [25] is SR. The experiment in a line: Antiproliferative activity against human SR cells assessed as cell growth inhibition. The data set is classed as functional.
Data set [26] deals with RPMI-8226. In words: Antiproliferative activity against human RPMI-8226 cells assessed as cell growth inhibition. The format is functional.
Data set [27] concerns MOLT-4. In words: Antiproliferative activity against human MOLT-4 cells assessed as cell growth inhibition. The format is functional.
Data set [28] has as its system DU-145. In words: Antiproliferative activity against human DU-145 cells assessed as cell growth inhibition. The data set is classed as functional.
Data set [29] concerns HeLa. The experiment in a line: Antiproliferative activity against human HeLa cells assessed as cell growth inhibition. The format is functional, cell-based.
The test system of data set [30] is A2780. In words: Cytotoxicity against drug resistant human A2780 cells assessed as cell growth inhibition. The format is functional, cell-based.
Data set [31] deals with CH1. In words: Cytotoxicity against drug resistant human CH1 cells assessed as cell growth inhibition. The data set is classed as functional, cell-based.
Data set [32] has as its system CH1. The experiment in a line: Cytotoxicity against human CH1 cells assessed as cell growth inhibition. The data set is classed as functional, cell-based.
The test system of data set [33] is A2780. In words: Cytotoxicity against human A2780 cells assessed as cell growth inhibition. The format is functional, cell-based.

Molecules are shown by their SMILES. Converted amounts (≈) assume the structure as drawn.

T1 sequence (O14746 whole entry): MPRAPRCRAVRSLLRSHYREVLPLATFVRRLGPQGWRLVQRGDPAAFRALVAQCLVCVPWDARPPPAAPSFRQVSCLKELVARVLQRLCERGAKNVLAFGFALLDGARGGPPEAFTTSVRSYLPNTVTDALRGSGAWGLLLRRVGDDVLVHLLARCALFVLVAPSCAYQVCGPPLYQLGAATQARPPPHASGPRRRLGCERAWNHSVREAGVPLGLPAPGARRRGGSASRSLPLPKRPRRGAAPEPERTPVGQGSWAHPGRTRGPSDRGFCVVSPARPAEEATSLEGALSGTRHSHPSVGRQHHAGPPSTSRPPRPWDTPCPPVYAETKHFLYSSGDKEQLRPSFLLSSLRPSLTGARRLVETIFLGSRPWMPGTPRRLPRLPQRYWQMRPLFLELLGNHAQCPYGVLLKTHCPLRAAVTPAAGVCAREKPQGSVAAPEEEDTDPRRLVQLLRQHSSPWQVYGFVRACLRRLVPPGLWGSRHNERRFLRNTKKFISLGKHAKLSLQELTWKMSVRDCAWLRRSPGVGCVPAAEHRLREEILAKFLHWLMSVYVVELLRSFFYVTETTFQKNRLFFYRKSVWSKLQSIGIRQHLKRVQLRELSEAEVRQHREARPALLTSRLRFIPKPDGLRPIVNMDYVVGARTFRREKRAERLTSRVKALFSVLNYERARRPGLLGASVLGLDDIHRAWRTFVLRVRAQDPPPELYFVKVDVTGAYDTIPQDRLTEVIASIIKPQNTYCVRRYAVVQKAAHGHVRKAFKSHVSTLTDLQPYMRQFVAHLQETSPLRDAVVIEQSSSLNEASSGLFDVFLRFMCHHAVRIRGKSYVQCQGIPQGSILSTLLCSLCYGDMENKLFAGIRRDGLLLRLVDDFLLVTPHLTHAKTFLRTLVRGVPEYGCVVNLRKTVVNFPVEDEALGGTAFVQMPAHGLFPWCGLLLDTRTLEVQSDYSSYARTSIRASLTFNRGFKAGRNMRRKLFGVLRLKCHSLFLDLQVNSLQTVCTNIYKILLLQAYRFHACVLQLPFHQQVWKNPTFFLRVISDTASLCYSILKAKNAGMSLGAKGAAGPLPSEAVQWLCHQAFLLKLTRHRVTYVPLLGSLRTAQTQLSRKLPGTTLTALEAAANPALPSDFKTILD
DNA topoisomerase 2-beta (Homo sapiens), sequence (Q02880 whole entry): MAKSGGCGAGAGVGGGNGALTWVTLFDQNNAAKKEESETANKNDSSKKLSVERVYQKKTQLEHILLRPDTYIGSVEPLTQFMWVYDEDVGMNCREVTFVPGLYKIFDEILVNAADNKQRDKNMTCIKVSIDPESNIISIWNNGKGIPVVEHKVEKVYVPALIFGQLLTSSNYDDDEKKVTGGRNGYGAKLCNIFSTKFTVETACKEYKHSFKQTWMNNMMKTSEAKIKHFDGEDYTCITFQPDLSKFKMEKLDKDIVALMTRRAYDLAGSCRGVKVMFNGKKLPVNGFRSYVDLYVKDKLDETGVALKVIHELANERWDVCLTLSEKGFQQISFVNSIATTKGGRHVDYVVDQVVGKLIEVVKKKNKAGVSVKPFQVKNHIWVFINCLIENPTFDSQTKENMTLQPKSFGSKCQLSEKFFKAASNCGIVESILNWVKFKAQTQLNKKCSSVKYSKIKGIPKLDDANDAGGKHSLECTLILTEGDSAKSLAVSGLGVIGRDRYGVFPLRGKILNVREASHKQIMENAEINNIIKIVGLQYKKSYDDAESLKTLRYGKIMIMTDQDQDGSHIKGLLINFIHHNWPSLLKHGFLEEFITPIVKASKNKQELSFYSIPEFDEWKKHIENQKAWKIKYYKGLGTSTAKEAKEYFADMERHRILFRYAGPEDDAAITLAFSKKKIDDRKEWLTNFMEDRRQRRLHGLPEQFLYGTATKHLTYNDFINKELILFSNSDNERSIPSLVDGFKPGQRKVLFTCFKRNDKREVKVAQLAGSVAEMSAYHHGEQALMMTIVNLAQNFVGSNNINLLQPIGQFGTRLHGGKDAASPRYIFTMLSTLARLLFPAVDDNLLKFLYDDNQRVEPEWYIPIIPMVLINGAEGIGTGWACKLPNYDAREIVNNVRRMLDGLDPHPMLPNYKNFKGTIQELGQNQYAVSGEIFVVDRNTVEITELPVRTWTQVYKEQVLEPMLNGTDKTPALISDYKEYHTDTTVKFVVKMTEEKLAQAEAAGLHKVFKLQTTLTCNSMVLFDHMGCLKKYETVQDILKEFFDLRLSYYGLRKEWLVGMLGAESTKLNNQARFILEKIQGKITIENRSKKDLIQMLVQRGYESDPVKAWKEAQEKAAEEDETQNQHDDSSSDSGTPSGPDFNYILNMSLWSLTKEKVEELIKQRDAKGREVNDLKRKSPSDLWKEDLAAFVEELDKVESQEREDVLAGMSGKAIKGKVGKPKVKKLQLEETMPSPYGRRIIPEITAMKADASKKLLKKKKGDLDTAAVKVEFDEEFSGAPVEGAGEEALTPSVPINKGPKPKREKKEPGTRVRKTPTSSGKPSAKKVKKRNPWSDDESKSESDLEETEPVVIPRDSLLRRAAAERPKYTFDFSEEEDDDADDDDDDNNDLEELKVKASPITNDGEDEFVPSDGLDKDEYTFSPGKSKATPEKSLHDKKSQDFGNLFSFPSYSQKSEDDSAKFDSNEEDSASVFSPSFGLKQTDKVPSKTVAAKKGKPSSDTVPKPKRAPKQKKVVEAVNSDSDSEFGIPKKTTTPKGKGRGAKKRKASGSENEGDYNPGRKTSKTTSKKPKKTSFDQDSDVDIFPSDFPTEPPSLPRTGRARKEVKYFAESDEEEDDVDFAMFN

For the compound `Cn1c2nc3ccccc3c-2c(NCC(C)(C)CNC(=O)Nc2ccccc2)c2cc(Cl)ccc21`, the IC50 (in general, the midpoint of a concentration-inhibition curve) in data set [1] stood at 0.019 µM; in data set [2], 1.18 µM; in data set [3], 10.1 µM.

With `Cn1cc2c3ccccc3nc-2c2ccccc21` [ISOCRYPTOLEPINE], the IC50 in data set [4] is 0.78 µM; in [6] it was 0.73 µM. Moreover, the selectivity ratio in data set [5] amounted to 1.8.

On to `c1ccc2c(c1)nc(NCCCNCCCNc1nc3ccccc3c3[nH]c4ccccc4c13)c1c3ccccc3[nH]c21`, for which the IC50 in data set [7] worked out at 0.09 µM.

In turn, `CN(C)CCNc1c2ccccc2nc2c1[nH]c1ccccc12` gave an IC50 in data set [8] of 1.12 µM.

`C[C@H]1[C@H](OC(=O)CCC(=O)NCCCNc2nc3ccccc3c3[nH]c4ccccc4c23)O[C@@H]2O[C@@]3(C)CC[C@H]4[C@H](C)CC[C@@H]1[C@@]24OO3`: the IC50 in data set [9] was determined as 15.7 µM. Moreover, the selectivity ratio in data set [10] amounted to 3280.

Take `O=C(NCCNc1c2ccccc2nc2c1[nH]c1ccccc12)c1ccccc1`: the IC50 in data set [11] stood at 0.8 µM.

On to `CN(C)c1ccc(C2SCC(=O)N2CCCNc2c3c4ccccc4nc-3n(C)c3ccccc23)cc1` (centres undefined), for which the IC50 in data set [12] came to 1.37 µM.

As to `C[n+]1c2ccccc2cc2[n-]c3ccccc3c21` [CRYPTOLEPINE], the results for the IC50 in data set [13] and in [15] were 0.63 µM and 1.05 µM, respectively. The same compound had an MIC in data set [14] of 0.25 µM (≈ 0.0581 µg/mL). Also, the Activity in data set [16] is 43%.

Consider `COc1cc2c(cc1CN1CCC(N3CCCCC3)CC1)[nH]c1c3ccc(Cl)cc3ncc21`, for which, in [17], the IC50 turned out to be 0.05 µM.

In the case of `Cn1c2nc3ccccc3c-2c(NCCCN)c2ccccc21`, in [18], the selectivity ratio was 3.5.

Regarding `CCN(CC)CCOC(=O)c1ccc2c(c1)c1c(c(=O)c3ccccc3n1CCN(CC)CC)n2CCN(CC)CC`, in data set [19], the IC50 came out at 4.5 µM.

Regarding `COc1cc2c(cc1CN1CCN(C)CC1)[nH]c1c3ccc(Cl)cc3ncc21`, in data set [20], the IC50 came out at 0.0024 µM.

Regarding `OCCCNc1c2ccccc2nc2c1[nH]c1ccccc12`, the IC50 in data set [8] was 1.55 µM.

Consider `Cn1c2nc3ccccc3c-2c(NCC(C)(C)CNC(=S)Nc2ccccc2)c2cc(Cl)ccc21`, for which the concentration for half-maximal inhibition (IC50) in data set [1] stood at 0.019 µM; in data set [2], 3.27 µM; in data set [3] it was 34.1 µM. The selectivity ratio in data set [18] worked out at 164.

Compound `c1cc2nc3c(cc2cc1CCCN1CCCCC1)[nH]c1ccc(CCCN2CCCCC2)cc13` registered an IC50 in data set [21] of 11.8 µM.

As to `Cn1c2nc3ccccc3c-2c(NCCCNC(=S)Nc2ccccc2)c2ccccc21`, the selectivity ratio was 11 in data set [22] and 135 in [18]. The 50% inhibitory concentration (IC50) in data set [12] was 0.589 µM.

With `COc1c2c3ccccc3nc-2n(C)c2ccccc12`, the GI50 – broadly, the concentration at which growth is held to half of that of the control – amounted to 9.88 µM in data set [23]; 11.5 µM in [24]; 7.1 µM in [25]; 6.04 µM in data set [26]; 4.7 µM in [27].

As to `C=CCn1c2ccccc2c2c(C(=O)NC3CCCCC3)c3cc(F)ccc3nc21`, the GI50 in data set [28] came to 9.4 µM; in [13] it was 11.9 µM; in data set [29], 9.9 µM; in [15], 7.7 µM.

`Cn1c2nc3ccccc3c-2c(NCC(C)(C)CNC(=S)Nc2ccccc2)c2ccccc21`: the figures for the IC50 in data set [1], in [2] and in [3] were 0.057 µM, 7.25 µM and 19.9 µM, respectively. The selectivity ratio in [18] was found to be 126.

Regarding `CCCCNc1c2ccccc2[n+](C)c2c1[nH]c1ccccc12`, the values for the IC50 in data set [13] and in [15] were 5.9 µM and 0.47 µM, respectively. This compound also yielded an MIC in [14] of 0.5 µM.

With `COc1ccc(Nc2c3c4ccccc4nc-3n(C)c3ccccc23)cc1`, the GI50 in [23] was 0.11 µM; in [24], 0.42 µM; in data set [25], 0.19 µM; in data set [26], 0.14 µM; in data set [27] it was 0.09 µM.

For `CN(C)CCc1ccc2nc3c4ccccc4n(CCN(C)C)c3cc2c1`, the IC50 in [30] worked out at 10.5 µM; in [31] it was 12.5 µM; in [32] it was 8.4 µM; in data set [33], 12.5 µM.
